Values quoted from earlier work as cited in patent US20130252334A1, “METHOD OF USING TET-INDUCIBLE TRANSGENES” (UNIVERSITY OF ROCHESTER, priority 2010, published 2013).

Columns and labels:
[1] = test system: rtTA; conditions: compared to Dox; Zhu et al. 2007; cited from earlier work
[2] = molecular target: tet repressor (Escherichia coli, UniProt P04483); conditions: relative to tetracycline; Zhu et al. 2007; cited from earlier work
[3] = versus other related compounds; cited from earlier work

Sequence of tet repressor (P04483 whole entry): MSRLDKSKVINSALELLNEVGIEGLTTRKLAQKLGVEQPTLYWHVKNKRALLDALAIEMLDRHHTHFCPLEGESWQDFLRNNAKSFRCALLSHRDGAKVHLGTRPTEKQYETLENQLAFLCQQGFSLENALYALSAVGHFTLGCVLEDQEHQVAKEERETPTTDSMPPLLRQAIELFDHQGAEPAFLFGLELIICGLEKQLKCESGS

C[C@H]1c2ccc(C(C)(C)C)c(O)c2C(O)=C2C(=O)[C@]3(O)C(O)=C(C(N)=O)C(=O)[C@@H](N(C)C)[C@@H]3[C@@H](O)[C@@H]21 [9-TB, 9-t-butyl doxycycline]
potency in activating transcription from the rtTA [1]: 10 times | binding affinity on the tet repressor, fold higher [2]: 10 fold | hydrophobicity/lipophilicity [3]: much more hydrophobic/lipophylic than other related compounds
